Reference: PMC5046105, “Improved affinity at the cost of decreased specificity: a recurring theme in PDZ-peptide interactions” (Scientific Reports, 2016)
Residue numbers refer to the chain shown, from its start. Ends that are not written are not given here.

Columns and labels:
[1] = biological target: T1, pWT PDZ2 (pseudo wild type SAP97 PDZ2, I342W/C378A) (Homo sapiens, UniProt Q12959, C378A/I342W); assay: Stopped-flow binding kinetics, peptide with pWT PDZ2; settings: for Kd: Kd = koff/kon, ± propagated standard error; for Kd / koff: pH 7.5, 10 °C; for kon: Trp342 fluorescence, 1 µM PDZ, peptide 2–40 µM, N-acetylated peptide, 50 mM potassium phosphate pH 7.5, 10 °C; for kon / koff: value ± standard error; for koff: displacement of pre-formed complex (1 µM PDZ, 2 µM peptide) with 100 and 150 µM dansylated RRRETQV peptide
T1 construct: constituting SAP97 residues 311–407 and the mutations I342W and C372A; His-tagged lipoyl protein domain (N, cleaved yes); made in house
T1 sequence (Q12959 311-407 I342W/C378A): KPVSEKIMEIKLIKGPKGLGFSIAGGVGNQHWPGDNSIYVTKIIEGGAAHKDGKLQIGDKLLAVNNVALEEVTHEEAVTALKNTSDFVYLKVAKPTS
Description: (§1) The basic experimental parameters determined were the rate constants of association (kon) and dissociation (koff) for each peptide and for all PDZ variants, respectively, in a procedure described in Fig. 2 for the interaction between PDZØ9 and the EKKHTLL peptide as an example.
(§2) Figure 2 Determination of the two rate constants kon and koff for PDZØ9 binding to the EKKHTLL peptide. kon and koff were determined in separate experiments using stopped-flow spectroscopy and monitoring the change in Trp fluorescence upon binding. (a) The experimental trace was obtained by averaging of three individual experiments in which 11 μM of the EKKHTLL peptide was mixed with 1 μM PDZØ9. The trace was fitted to a single exponential function to obtain the observed rate constant, kobs. […] (c) In a displacement reaction a pre-formed complex between PDZØ9 (1 μM) and the EKKHTLL peptide (2 μM) was mixed with a large excess of dansyl-labeled peptide corresponding to the C-terminal […] of HPV18 E6 (150 μM). […] At high concentrations of dansylated peptide, none of the dissociated EKKHTLL will re-bind, and fitting to a single exponential function returns a kobs value which is equal to the dissociation rate constant, koff, of the pre-formed complex.
(§3) All of the stopped-flow experiments conducted in order to measure the rate constants for the peptide/PDZ interactions, were performed on an SX-20 MV stopped-flow spectrometer (Applied Photophysics Leatherhead, UK) at 10 °C in 50 mM potassium phosphate buffer, pH 7.5. Fluorescence was monitored using the change in emission of Trp342 in the PDZ variants (excitation at 280 nm; emission at 330 ± 30 nm). The peptides were N-acetylated (Ontores Biotechnologies) and the concentration of the respective stock solution was determined with either absorbance, quantitative amino acid analysis or direct detect (EMD Millipore). The rate constants of association, kon, and dissociation, koff, were determined in separate experiments. […] For each PDZ variant the kobs values were plotted versus the concentration of peptide and fitted to the general equation for a reversible bimolecular interaction[38][39] from which kon was derived. The koff was measured in a displacement experiment in which a pre-formed complex of PDZ variant (1 μM) and peptide (2 μM) was mixed with high concentrations of a dansylated RRRETQV-peptide (100, and 150 μM), which competes with the unlabelled peptide for binding to the PDZ. […] The kobs value at high peptide concentration is equal to the overall koff value, as described previously.

[2] = biological target: T2, PDZØ9 (pWT SAP97 PDZ2 L391F/K392M) (Homo sapiens, UniProt Q12959, C378A/I342W/K392M/L391F); assay: Stopped-flow binding kinetics, peptide with PDZØ9; settings: stopped-flow; for Kd: Kd = koff/kon, ± propagated standard error; for Kd / koff: pH 7.5, 10 °C; for koff: displacement of pre-formed complex (1 µM PDZ, 2 µM peptide) with 100 and 150 µM dansylated RRRETQV peptide; for koff / kon: value ± standard error; for kon: Trp342 fluorescence, 1 µM PDZ, peptide 2–40 µM, N-acetylated peptide, 50 mM potassium phosphate pH 7.5, 10 °C
T2 construct: constituting SAP97 residues 311–407 and the mutations I342W and C372A; His-tagged lipoyl protein domain (N, cleaved yes); made in house
T2 sequence (Q12959 311-407 I342W/C378A/L391F/K392M): T1 sequence (Q12959 311-407 I342W/C378A) with L81F, K82M
Description: as §1, §2, §3

[3] = biological target: T3, pWT PDZ2 L391F (Homo sapiens, UniProt Q12959, C378A/I342W/L391F); assay: Stopped-flow binding kinetics, peptide with pWT PDZ2 L391F; settings: for Kd: Kd = koff/kon, ± propagated standard error; for Kd / koff: pH 7.5, 10 °C; for kon: Trp342 fluorescence, 1 µM PDZ, peptide 2–40 µM, N-acetylated peptide, 50 mM potassium phosphate pH 7.5, 10 °C; for kon / koff: value ± standard error; for koff: displacement of pre-formed complex (1 µM PDZ, 2 µM peptide) with 100 and 150 µM dansylated RRRETQV peptide
T3 construct: constituting SAP97 residues 311–407 and the mutations I342W and C372A; His-tagged lipoyl protein domain (N, cleaved yes); made in house
T3 sequence (Q12959 311-407 I342W/C378A/L391F): T1 sequence (Q12959 311-407 I342W/C378A) with L81F
Description: as §1, §2, §3

[4] = biological target: T4, pWT PDZ2 K392M (Homo sapiens, UniProt Q12959, C378A/I342W/K392M); assay: Stopped-flow binding kinetics, peptide with pWT PDZ2 K392M; settings: for Kd: Kd = koff/kon, ± propagated standard error; for Kd / koff: pH 7.5, 10 °C; for kon: Trp342 fluorescence, 1 µM PDZ, peptide 2–40 µM, N-acetylated peptide, 50 mM potassium phosphate pH 7.5, 10 °C, value ± standard error (EKKHTLL: mean of two experiments); for koff: displacement of pre-formed complex (1 µM PDZ, 2 µM peptide) with 100 and 150 µM dansylated RRRETQV peptide, value ± standard error
T4 construct: constituting SAP97 residues 311–407 and the mutations I342W and C372A; His-tagged lipoyl protein domain (N, cleaved yes); made in house
T4 sequence (Q12959 311-407 I342W/C378A/K392M): T1 sequence (Q12959 311-407 I342W/C378A) with K82M
Description: as §1, §2, §3

Ac-EKKHTLL [EKKHTLL]
Kd [1]: 9.3 ± 0.4 µM | kon [1]: 1.2e+07 ± 500000 M⁻¹ s⁻¹ | koff [1]: 112 ± 1.2 s⁻¹ | Kd [2]: 0.56 ± 0.005 µM | koff [2]: 7.9 ± 0.04 s⁻¹ | kon [2]: 1.4e+07 ± 100000 M⁻¹ s⁻¹ | Kd [3]: 0.65 ± 0.007 µM | kon [3]: 1.1e+07 ± 80000 M⁻¹ s⁻¹ | koff [3]: 7.1 ± 0.05 s⁻¹ | Kd [4]: 14 ± 2 µM | kon [4]: 1.1e+07 ± 1.7e+06 M⁻¹ s⁻¹ | koff [4]: 157 ± 2 s⁻¹

Ac-KRKETLV [KRKETLV]
Kd [1]: 0.47 ± 0.006 µM | kon [1]: 6.4e+06 ± 60000 M⁻¹ s⁻¹ | koff [1]: 3 ± 0.03 s⁻¹ | Kd [2]: 0.08 ± 0.001 µM | koff [2]: 0.6 ± 0.005 s⁻¹ | kon [2]: 8e+06 ± 60000 M⁻¹ s⁻¹ | Kd [3]: 0.08 ± 0.001 µM | kon [3]: 7.4e+06 ± 60000 M⁻¹ s⁻¹ | koff [3]: 0.6 ± 0.005 s⁻¹ | Kd [4]: 0.47 ± 0.002 µM | kon [4]: 7.2e+06 ± 20000 M⁻¹ s⁻¹ | koff [4]: 3.4 ± 0.01 s⁻¹

Ac-NSKETVV [NSKETVV]
Kd [1]: 0.66 ± 0.007 µM | kon [1]: 1.3e+07 ± 100000 M⁻¹ s⁻¹ | koff [1]: 8.6 ± 0.07 s⁻¹ | Kd [2]: 0.16 ± 0.002 µM | koff [2]: 1.6 ± 0.01 s⁻¹ | kon [2]: 1e+07 ± 70000 M⁻¹ s⁻¹ | Kd [3]: 0.15 ± 0.001 µM | kon [3]: 1.3e+07 ± 90000 M⁻¹ s⁻¹ | koff [3]: 1.9 ± 0.01 s⁻¹ | Kd [4]: 0.79 ± 0.01 µM | kon [4]: 9.7e+06 ± 70000 M⁻¹ s⁻¹ | koff [4]: 7.7 ± 0.18 s⁻¹

Ac-PGKETQL [PGKETQL]
Kd [1]: 2.8 ± 0.1 µM | kon [1]: 1.8e+07 ± 600000 M⁻¹ s⁻¹ | koff [1]: 51 ± 1.8 s⁻¹ | Kd [2]: 0.24 ± 0.004 µM | koff [2]: 3.9 ± 0.03 s⁻¹ | kon [2]: 1.6e+07 ± 200000 M⁻¹ s⁻¹ | Kd [3]: 0.25 ± 0.004 µM | kon [3]: 2e+07 ± 300000 M⁻¹ s⁻¹ | koff [3]: 5 ± 0.02 s⁻¹ | Kd [4]: 2.7 ± 0.2 µM | kon [4]: 1.8e+07 ± 600000 M⁻¹ s⁻¹ | koff [4]: 48 ± 2.3 s⁻¹

Ac-RRRETQV [RRRETQV, reference compound]
Kd [1]: 0.4 ± 0.005 µM | kon [1]: 8e+06 ± 40000 M⁻¹ s⁻¹ | koff [1]: 3.2 ± 0.04 s⁻¹ | Kd [2]: 0.06 ± 0.002 µM | koff [2]: 0.6 ± 0.015 s⁻¹ | kon [2]: 9.8e+06 ± 50000 M⁻¹ s⁻¹ | Kd [3]: 0.07 ± 0.001 µM | kon [3]: 8.7e+06 ± 40000 M⁻¹ s⁻¹ | koff [3]: 0.6 ± 0.01 s⁻¹ | Kd [4]: 0.37 ± 0.003 µM | kon [4]: 9e+06 ± 40000 M⁻¹ s⁻¹ | koff [4]: 3.3 ± 0.02 s⁻¹

Ac-RSISTDV [RSISTDV]
Kd [1]: 1.2 ± 0.03 µM | kon [1]: 2.1e+07 ± 500000 M⁻¹ s⁻¹ | koff [1]: 26 ± 0.3 s⁻¹ | Kd [2]: 0.25 ± 0.005 µM | koff [2]: 4.3 ± 0.06 s⁻¹ | kon [2]: 1.7e+07 ± 200000 M⁻¹ s⁻¹ | Kd [3]: 0.18 ± 0.003 µM | kon [3]: 2.4e+07 ± 300000 M⁻¹ s⁻¹ | koff [3]: 4.3 ± 0.05 s⁻¹ | Kd [4]: 1.8 ± 0.04 µM | kon [4]: 1.7e+07 ± 300000 M⁻¹ s⁻¹ | koff [4]: 31 ± 0.3 s⁻¹

Ac-SARSTDV [SARSTDV]
Kd [1]: 1.6 ± 0.03 µM | kon [1]: 1.6e+07 ± 200000 M⁻¹ s⁻¹ | koff [1]: 26 ± 0.3 s⁻¹ | Kd [2]: 0.26 ± 0.005 µM | koff [2]: 3.4 ± 0.06 s⁻¹ | kon [2]: 1.3e+07 ± 100000 M⁻¹ s⁻¹ | Kd [3]: 0.22 ± 0.003 µM | kon [3]: 1.8e+07 ± 100000 M⁻¹ s⁻¹ | koff [3]: 4 ± 0.05 s⁻¹ | Kd [4]: 2.1 ± 0.03 µM | kon [4]: 1.2e+07 ± 100000 M⁻¹ s⁻¹ | koff [4]: 25 ± 0.3 s⁻¹

Ac-TSRETDL [TSRETDL]
Kd [1]: 2.2 ± 0.07 µM | kon [1]: 3.3e+07 ± 1.1e+06 M⁻¹ s⁻¹ | koff [1]: 71 ± 0.5 s⁻¹ | Kd [2]: 0.17 ± 0.004 µM | koff [2]: 2.6 ± 0.04 s⁻¹ | kon [2]: 1.5e+07 ± 200000 M⁻¹ s⁻¹ | Kd [3]: 0.21 ± 0.006 µM | kon [3]: 1.8e+07 ± 400000 M⁻¹ s⁻¹ | koff [3]: 3.8 ± 0.06 s⁻¹ | Kd [4]: 4.1 ± 0.2 µM | kon [4]: 1.5e+07 ± 500000 M⁻¹ s⁻¹ | koff [4]: 62 ± 0.9 s⁻¹

Ac-VSKETPL [VSKETPL]
Kd [1]: 3.9 ± 0.2 µM | kon [1]: 4e+07 ± 2.2e+06 M⁻¹ s⁻¹ | koff [1]: 154 ± 3 s⁻¹ | Kd [2]: 0.75 ± 0.02 µM | koff [2]: 6.3 ± 0.2 s⁻¹ | kon [2]: 8.4e+06 ± 60000 M⁻¹ s⁻¹ | Kd [3]: 0.8 ± 0.02 µM | kon [3]: 1.1e+07 ± 100000 M⁻¹ s⁻¹ | koff [3]: 8.8 ± 0.2 s⁻¹ | Kd [4]: 6.3 ± 0.6 µM | kon [4]: 2.4e+07 ± 2.2e+06 M⁻¹ s⁻¹ | koff [4]: 150 ± 3 s⁻¹
